The test system of data set [1] is reperfused rat hearts. Conditions: cited from earlier work.
For data set [2], the system named is ethanol oxidation. Particulars: intragastric gavage, dogs; cited from earlier work.
Data set [3] deals with isolated rabbit hearts. Nature of the data set: Recovery of isolated rabbit hearts following 25 min of warm ischemia. Also noted: species or system New Zealand rabbits. Particulars: 20 μM PNACE. How it is done:
In the working mode, which simulates physiological conditions, hearts pump the buffer against a 85 cm hydrostatic pressure in the aorta. The mechanical performance of the hearts was assessed by monitoring heart rate, cardiac output, coronary flow, left ventricular pressure, and dP/dtmax. The latter parameter reflects the capacity of the heart to increase hydrostatic pressure in the left ventricle. Following 30 minutes of equilibration, the hearts were made ischemic for 25 minutes by clamping the aortic and left atrial canulas. Then, the clamps were removed to allow reperfusion with oxygenated KRB buffer containing either no additive (n=7, control group), or 20 μM pyruvate-N-acetyl-cysteine ethyl ester ([…]=7). PNACE was infused via a syringe pump into the inflowing perfusate. In the syringe, PNACE was dissolved in 0.1 mM HCl to prevent hydrolysis of the thioester.

The test system of data set [4] is myocardial infarct. Briefly: Decrease in myocardial infarct size in swine (LAD occlusion/reperfusion). It is filed as in vivo. The method, then:
Decrease in myocardial infarct size in swine by DPAG.
The animals were anesthetized, instrumented, and subjected to 60 minutes of total occlusion of the distal 2/3 of the left anterior descending coronary artery, followed by 120 min of reperfusion. The area of the infarct was stained with tetrazolium, and infarct size quantitated on 5 mm slices of tissue. Treatment with DPAG was started with the onset of reperfusion (8.0 mg/kgmin for 120 min).

In data set [5] the test system is preserved rat livers. Nature of the data set: Metabolic integrity of preserved rat livers upon reperfusion. The method, then: Improved function of preserved rat livers
The first group of livers (n=7, control group) was not preserved, but was perfused at 37° C. for 45 minutes. The second group of livers (n=8, preserved group) was flushed with ice-cold University of Wisconsin (UW) preservation solution and stored for 24 hours in ice-cold UW solution. Next, the livers were reperfused at 37° C. with non-recirculating KRB buffer containing 5 mM glucose. The third group of livers (n=8, preserved+PNACE group) was treated as the second group except that 20 μM PNACE was added to the UW preservation solution and to the reperfusion KRB buffer. During the last 45 min of (re)perfusion, the function of the three groups of livers was assessed by (i) the release of three cellular enzymes, i.e. lactate dehydrogenase, aspartate aminotransferase, and alanine aminotransferase, (ii) oxygen consumption, and (iii) the production of ketone bodies, ie β-hydroxybutyrate+acetoacetate, after addition of 1 mM octanoate to the perfusate.
Effect of PNACE on metabolic integrity of preserved rat livers upon reperfusion

The nature of data set [6]: Stability of PNACE in solution. In kind it is physicochemical. The text has this: However, the present inventive compound has proven to be readily manufacturable and very effective in the prevention of organ damage associated with reperfusion injury. The compound has been prepared in pure form and in gram amounts. Its formula has been confirmed by elemental analysis and gas chromatography-mass spectrometry. The compound is stable in slightly acidic solutions (pH 4-5). […] The compound has also been synthesized labeled with three deuterium ^2 H atoms on the N-acetyl moiety. This deuterated compound is used as an internal standard for the assay of the compound by isotope dilution gas chromatography-mass spectrometry.

The test system of data set [7] is perfused rat livers. Nature of the data set: Acceleration of ethanol oxidation by components of pyruvate esters in perfused rat livers. Conditions: perfused liver. How it is done: Acceleration of ethanol oxidation
Rat livers were infused with ethanol and the components of the esters of glycerol-and-DHA pyruvate to represent the conditions that will occur after ester hydrolysis. […] After 10 min baseline, the influent perfusate was enriched with various equimolar concentrations of the components of the esters, ie DHA+Na-pyruvate, or glycerol+Na-pyruvate (up to 2.2 mM). These conditions simulated infusion and hydrolysis of glycerol- or DHA-monopyruvate. The uptakes of ethanol, pyruvate, DHA and glycerol, as well as the productions of lactate and glucose were measured.

Data set [8] deals with isolated rabbit hearts. Nature of the data set: Recovery of isolated rabbit hearts following massive catecholamine injury. Particulars: 50 μM isoproterenol, after 10 minutes. The method, then:
Recovery of isolated rabbit hearts following massive catecholamine injury
Rabbit hearts were perfused in the working mode as in the above example. However, after the 30 minutes of equilibration, 50 μM isoproterenol was added to the inflowing perfusate for 10 min. Isoproterenol is a catecholamine, which, at the dose administered, induces a marked increase in heart rate and cardiac output. After 10 minutes, the mechanical performance of the hearts decreased markedly to the point where cardiac output was almost zero. Then, isoproterenol infusion was stopped, and perfusion was continued for 30 minutes with oxygenated KRB buffer containing either no additive (n=7, control group), or 20 μM PNACE (n=7).

The subject of data set [9] is ketoacidotic diabetic rats. Briefly: Treatment of ketoacidotic diabetic BB rats. It is filed as in vivo. How it is done:
Prediabetic male BB rats were purchased from the University of Massachussetts Breeding Center. They were treated with insulin (PZI 40 U/mL, Anpro Pharmaceutical), mean of 2.1 U for rats weighing between 250-300 g) as soon as they became hyperglycemic. They were used after at least three weeks of clinical stability and steady weight growth. Under general anesthesia, permanent catheters were inserted in a carotid artery and the controlateral external jugular vein. Then, the rats were deprived of insulin for two days. […] The rats were then treated with one of four protocols: […]

In data set [10] the test system is perfused rat livers. Briefly: Effect of DPAG on ethanol uptake by perfused rat livers. Conditions: DPAG raised from zero to 0.5 mM, 2 mM ethanol, read-out: increase of ethanol uptake by the liver. How it is done: The effect of DPAG on the rate of ethanol uptake by perfused rat livers was also tested. Livers were perfused with non-recirculating buffer containing 4 mM glucose, 2 mM ethanol and variable concentrations of DPAG (0 to 1.5 mM). […] Note that 0.5 mM DPAG corresponds to 1 mM pyruvate after hydrolysis. Thus, to accelerate ethanol oxidation in vivo, the rate of DPAG administration should be adjusted to achieve a 1 mM concentration of free pyruvate in the portal vein. When DPAG was infused to live rats at 90 μmol·min^-1·kg^-1, the portal vein concentration of pyruvate was 0.6 mM. A portal pyruvate concentration of 1 mM could be achieved in vivo (i) by increasing the peripheral infusion of DPAG to 120 μmol·min·^-1 ·kg^-1, or (ii) by administering DPAG enterally to better target portal vein concentrations.

Data set [11] in a line: Therapeutic pyruvate concentration in vivo, infusion of rats. More on the design: species or system rat. The method, then:
Therapeutic pyruvate concentration in vivo with DPAG
After preparing pure DPAG, experiments were performed to test whether it could be used to impose a therapeutic concentration of 1 mM pyruvate in arterial blood. Overnight-fasted rats, anesthetized with halothane, were infused in the jugular vein with DPAG at 90 μmol·min^-1 ·kg^-1 for 90 min. This rate corresponds to about 120% of the rats' caloric requirement. Five blood samples (70 μl) were taken from the carotid artery between 60 and 90 min. The arterial concentrations of pyruvate, lactate, and glycerol were clamped at 1.0, 2.5, and 0.8 mM, respectively. Corresponding portal vein concentrations at 90 min were 0.6, 2.5, and 1.0 mM, respectively. FIGS. 8 and 9 show blood concentrations of metabolites in rats infused with DPAG (panel A) and in control rats infused with saline (panel B). Control rats show normal arterial concentrations of pyruvate (0.05 mM) and lactate (0.3 to 0.6 mM; normal values for lactate are up to 1.5 mM). In rats infused with DPAG, the arterial concentrations of pyruvate and lactate were clamped at 1.0, and 2.5 mM, respectively. Corresponding portal vein concentrations at 90 min were 0.6 and 2.5 mM, respectively. Arterial glucose remained at 5-6 mM. […] Thus, DPAG can be safely used to set up the 1 mM target concentration of pyruvate expected to be beneficial for the treatment of reperfusion injury. […] Third, during peripheral administration of DPAG at 90 μmol·min^-1 ·kg^-1, portal pyruvate concentration was about 2/3 that which yielded a 3 to 6-fold increase in ethanol uptake by perfused rat livers. A portal pyruvate concentration of 1 mM could be achieved (i) by increasing the peripheral infusion of DPAG to 120 μmol·min^-1 ·kg^-1, or (ii) by administering DPAG enterally to better target portal vein concentrations.

The mark [12] stands for this setting: Group III preserved + PNACE (20 μM), 25-30 min.
[13] abbreviates: preserved reperfused rat livers, 20 μM PNACE.

Here are results for 7 compounds from patent publication US6086789A, “Medical uses of pyruvates” (Case Western Reserve University, priority 1998, dated 2000).

In the case of `CC(=O)N[C@@H](CS)C(=O)O` [acetylcysteine], in data set [1], the “production of ROS” value was “decreases the production of ROS”.
`O=C(O)O` [NH4 HCO3]: in data set [2], the “rate of ethanol oxidation” value was “increases the rate of ethanol oxidation”.
Take `CCOC(=O)[C@H](CSC(=O)C(C)=O)NC(C)=O` [PNACE, Pyruvate-N-acetyl-L-cysteine ethyl ester]: in data set [3], the “duration of functional recovery” value is recorded as “lasted throughout the 30 minute reperfusion experiment”. The “infarct size, percent of the area at risk for infarction” value in [4] (PNACE group (n=4)) is listed as “about 16±4%”. The “Release of lactate dehydrogenase” value in data set [5] (Group III preserved + PNACE (20 μM), 10-14 min.) amounted to 4.5 U/L.g. For the same compound, in [5] (setting [12]), the Oxygen consumption was 2.4 µmol/min/g, the “Release of alanine aminotransferase” value amounted to 0.33 U/L.g and the “Release of aspartate amino-transferase” value came to 0.73 U/L.g. For the same compound, the Ketone body production in data set [5] (Group III preserved + PNACE (20 μM), 25-30 min., 1 mM octanoate) amounted to 1.4 µmol/min/g. In data set [5] (setting [13]), the “capacity of the liver to oxidize fatty acids to ketone bodies” value is “restores partially the capacity of the liver to oxidize fatty acids to ketone bodies”, the “initial release of tissue enzymes” value is listed as “markedly decreases the initial release of tissue enzymes” and the “oxygen consumption (in words)” value is recorded as “restores oxygen consumption to the level of non-preserved livers”. In addition, the “stability in slightly acidic solutions” value in data set [6] (pH 4-5) is given as “stable”. In addition, the “hydrolysis to pyruvate and N-acetylcysteine ethyl ester” value in data set [6] (pH 7.4) was “slowly hydrolyzed”.
For `CC(=O)C(=O)O` [pyruvate], in data set [7], the “increase in ethanol uptake by perfused rat livers” value was 3-6 fold.
Take `CC(C)NCC(O)c1ccc(O)c(O)c1` (stereo not shown) [isoproterenol]: in data set [8], the “cardiac output after isoproterenol” value is given as “almost zero”.
Take `CC(=O)OCC(COC(=O)C(C)=O)OC(=O)C(C)=O` (stereo not shown) [DPAG, dipyruvyl-acetyl-glycerol]: the “infarct size, percent of the area at risk for infarction” value in data set [4] (DPAG 8.0 mg/kgmin for 120 min from onset of reperfusion, n=6, p<0.0005 vs control 40.0±3.6%) is listed as 9.1±3.8%. For the same compound, the “effect on heart rate or ventricular pressure” value in [4] (DPAG infusion) is listed as “did not affect heart rate or ventricular pressure”. Further, the “decrease of total KB concentration” value in data set [9] (DPAG 90 μmol.min^-1 kg^-1 in saline infusion, in 2 hr) is 90%. Also, in data set [9] (compromised BB rats in diabetic ketoacidosis), the “tolerability of massive doses” value was “well tolerated”. Besides, in data set [10], the fold induction at 500 µM came out at 2.5. Further, in [11] (DPAG 90 μmol.min^-1.kg^-1), the Arterial glucose was in the range of 5 to 6 mM. For the same compound, in data set [11] (DPAG 90 μmol.min^-1.kg^-1, at 90 min), the “portal vein concentration of lactate” value is 2.5 mM. In addition, the “acid-base and electrolyte parameters of aortic blood” value in [11] (DPAG 90 μmol.min^-1.kg^-1, final samples) was “normal acid-base and electrolyte parameters”. Moreover, the “arterial concentration of lactate” value in data set [11] (DPAG 90 μmol.min^-1.kg^-1 jugular vein, 60-90 min) stood at 2.5 mM. Further, in [11] (DPAG at 1 mM arterial pyruvate), the “sodium overload and/or acid-base perturbations” value is on record as “without sodium overload and/or acid-base perturbations”. Besides, the “increases in glucose and lactate concentrations” value in [11] (DPAG at 120% of the caloric requirement) was “lack of major increases in glucose and lactate concentrations”.
Consider insulin, for which the “decrease of total KB concentration” value in data set [9] (0.75 U insulin intravenously + saline, 2 hr) came to 30%.
